Legend:
caspase-9 = test: Caspase-9; assay type: cell-based, human; conditions: MCF7 cells, versus untreated control cells
[1] = MTT cytotoxicity assay, MCF10a; assay type: cell-based; conditions: human, MCF10a normal mammary epithelial cells

For `CN[C@@H]1C[C@H]2O[C@@](C)([C@@H]1OC)n1c3ccccc3c3c4c(c5c6ccccc6n2c5c31)C(=O)NC4` [Staurosporine, reference compound], which “increase of apoptotic caspase-9 level” value (caspase-9) is on record?
Its value is 7.19 fold.

And the IC50 at 72 h [1]?
Its IC50 at 72 h is 18.3 ± 8.03 µM.
